# Entries after “also recorded” stand apart in the source; their conditions may differ.
# Columns and labels:
# HMEC cells = assay: ER stress induction in HMEC cells; format: cell-based, human; details: normal HMEC cells
# Source text: (§1) The basal level of expression of endoplasmic reticulum stress and unfolded protein response correlates with TK41 activity (FIG. 28). Modulation of the level of these stress proteins affects the activity of TK41. Thus, the basal level of expression of endoplasmic reticulum stress and unfolded protein response proteins may serve as a biomarker to predict response to TK41. […] Without wishing to be bound by any particular theory, the mechanism of action of TK41 may operate comprise targeting either ER or TLX and inducing endoplasmic reticulum stress, subsequent apoptosis, and blocking autophagic fusion (FIG. 30).
# ERX-41 induces endoplasmic reticulum stress in TNBC. To understand the mechanism of action of ERX-41 in TNBC, the inventors performed unbiased RNA sequencing studies in three TNBC (SUM-159, MDA-MB-231, and BT549) and normal HMEC cell lines (FIGS. 36A-C). […] Heatmaps show the induction of ER stress and UPR genes in these three TNBC cell lines (FIG. 36E). Evaluation of ER stress induction was then performed with ultrastructural studies using electron microscopy (EM) studies.
# TNBC cells = assay: De novo protein synthesis, puromycin labeled nascent proteins; format: cell-based; details: 4 h and 16 h
# Source text: Total protein is shown on right with coomassie blue staining.
# as §1
# TNBC PDX tumors = assay: TNBC patient derived xenografts (PDX); format: in vivo, mice; details: 10 mg/kg/day oral
# Description: FIGS. 7A-7C show effect of TK41 in triple negative breast cancer in patient derived xenografts. TNBC patient derived xenografts (n=6) were established in nude mice and treated with vehicle (circle markers) or 10 mg/kg/day/oral ERX-41 (i.e., TK41; square markers).
# FIGS. 32A-C show established breast PDX tumors treated either with vehicle (circles) or ERX-41 (squares). Tumor volume is graphed (left), distribution of tumor weights at necropsy (middle panel). *p<0.05; […].
# FIGS. 35A-P: ERX-41 is potent against TNBC in vivo. (FIG. 35A) Following establishment of subcutaneous MDA-MB-231 xenograft tumors (200 mm^3), 10 mg/kg single dose ERX-41 was administered either by oral or intraperitoneal route. The tumor was harvested 0, 0, 5, 1, 5, 3, 6 and 24 h after drug administration and the drug levels assayed by LC-MS/MS and graphed. (FIGS. 35B-E) Following establishment of MDA-MB-231 xenografts in mammary fat pad in vivo (100 mm^3 size), daily administration of 10 mg/kg ERX-41 or vehicle control (N=8 each group) was initiated. Tumor volumes were measured using digital calipers and graphed (FIG. 35B). Tumor weights (FIG. 35C), body weights (FIG. 35D) and extirpated tumors (FIG. 35E) at end of study are also shown. […] Tumor volumes were measured using digital calipers and graphed (FIG. 35F) along with tumor weights (FIG. 35G) and body weights (FIG. 35H). […]
# tumor growth = assay: Animal studies with TK41; format: in vivo
# Description: FIGS. 4A-4C show the effect of TK41 on estrogen receptor-positive (ER+ve) tumor growth. ZR75 (ER+ve; n=18) xenografts were established in nude mice and treated with either vehicle (circle markers) or 10 mg/kg/day TK41 (square markers) administered as an oral gavage in Captisol®. Comparison of mice body weights is shown in bar graphs (FIG. 4C). *p<0.05; **** p<0.001.
# FIGS. 5A-5C show the effect of TK41 on triple negative breast cancer xenograft tumors. MDA-MB-231 (TNBC; n=10) xenografts were established in nude mice and treated with either vehicle (circle markers) or 10 mg/kg/day TK41 (square markers) administered as an oral gavage in Captisol®. Comparison of mice body weights is shown in bar graphs (FIG. 5A). Photographs of individual tumors at necropsy supports the effect of TK41 on TNBC. *p<0.05; **** p<0.001.
# TNBC is difficult to be treated and currently there are no good drugs available in the market.
# [1] = system: ERMT (therapy resistant) xenografts; assay: ERMT therapy resistant xenografts; format: in vivo, nude mice; details: 10 mg/kg/day oral
# Description: FIGS. 8A & 8B show the effect of TK41 (i.e., ERX-41) on therapy resistant cancer cells. ERMT (therapy resistant) xenografts (n=8) were established in nude mice and treated with vehicle (circle markers) or 10 mg/kg/day/oral ERX-41 (square markers).
smiles,measurement,setting,value
CC(C)COc1cc(C(=O)Nc2ccc(C(=O)N[C@H]3CC[C@H](C)CC3)cc2OCC(C)C)ccc1NC(=O)c1ccc([N+](=O)[O-])c(OCCO)c1 [TK41],induction of endoplasmic reticulum stress in HMEC,HMEC cells,does not induce endoplasmic reticulum stress
same,induction of endoplasmic reticulum stress in HMEC,HMEC cells; listed as ERX-41,unable to induce ER stress
same,de novo protein synthesis,TNBC cells,shuts down de novo protein synthesis
same,de novo protein synthesis,TNBC cells; listed as TK-41,decreases global new protein synthesis
same,growth of TNBC PDX tumors,TNBC PDX tumors,significantly decreased the growth
same,growth of TNBC PDX tumors,TNBC PDX tumors; listed as ERX-41,significantly decreased the rates of growth; also recorded: has activity against TNBC PDX tumors
same,side effects or toxicity,tumor growth; animal studies,no apparent side effects or toxicity
same,tumor growth inhibition,tumor growth; animal studies,outstanding tumor growth inhibition
same,oral availability,"tumor growth; mouse, in vivo, po",orally available
same,activity against ERMT tumors,[1],has activity against ERMT tumors

# From US12275685B2, “Oligo-benzamide analogs and their use in cancer treatment” (Board of Regents, The University of Texas System, priority 2018, dated 2025)
